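Assay format: 96-well plates, 48-hour exposure. TGI: concentration producing complete growth inhibition.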
Legend:
Assay in all cases: growth of human tumour cells (NCI), 48 h
HCT-116 colon = tested on: HCT-116 colon
SR leukemia = tested on: SR leukemia
NCI-H460 lung = tested on: NCI-H460 lung
OVCAR-8 ovarian = tested on: OVCAR-8 ovarian
MALME-3M melanoma = tested on: MALME-3M melanoma
SK-MEL-28 melanoma = tested on: SK-MEL-28 melanoma
KM12 colon = tested on: KM12 colon
HCT-15 colon = tested on: HCT-15 colon
SF-295 CNS = tested on: SF-295 CNS
SF-539 CNS = tested on: SF-539 CNS
HS 578T breast = tested on: HS 578T breast
COLO 205 colon = tested on: COLO 205 colon
MCF7 breast = tested on: MCF7 breast
HOP-62 NSCLC = tested on: HOP-62 NSCLC
OVCAR-3 ovarian = tested on: OVCAR-3 ovarian
NCI-H23 lung = tested on: NCI-H23 lung
UACC-62 melanoma = tested on: UACC-62 melanoma
BT-549 breast = tested on: BT-549 breast

| Compound | TGI (HCT-116 colon) [µM] | TGI (SR leukemia) [µM] | TGI (NCI-H460 lung) [µM] | TGI (OVCAR-8 ovarian) [µM] | TGI (MALME-3M melanoma) [µM] | TGI (SK-MEL-28 melanoma) [µM] | TGI (KM12 colon) [µM] | TGI (HCT-15 colon) [µM] | TGI (SF-295 CNS) [µM] | TGI (SF-539 CNS) [µM] | TGI (HS 578T breast) [µM] | TGI (COLO 205 colon) [µM] | TGI (MCF7 breast) [µM] | TGI (HOP-62 NSCLC) [µM] | TGI (OVCAR-3 ovarian) [µM] | TGI (NCI-H23 lung) [µM] | TGI (UACC-62 melanoma) [µM] | TGI (BT-549 breast) [µM] |
| --- | --- | --- | --- | --- | --- | --- | --- | --- | --- | --- | --- | --- | --- | --- | --- | --- | --- | --- |
| O=C1CCCC1C(O)(C(F)(F)F)C(F)(F)F (stereo unspecified) | > 100 | > 100 | > 100 | > 100 | > 100 | > 100 | > 100 | > 100 | > 100 | > 100 | > 100 | > 100 | > 100 | > 100 | > 100 | > 100 | > 100 | – |
| Cc1ccc(C)n1-c1ccccc1C1C=CN(C(=O)OC(C)(C)C)C=C1 | 45.1 | – | 96.9 | > 100 | 47.8 | > 100 | 31.2 | 45.7 | > 100 | > 100 | > 100 | 32.4 | 32.6 | > 100 | 46.8 | > 100 | 77.9 | > 100 |
| Cc1ccc2c(c1)CC1(Cc3c(C)cccc3C1=O)C2=O (stereo unspecified) | > 100 | > 100 | > 100 | > 100 | > 100 | > 100 | > 100 | > 100 | > 100 | > 100 | 87.4 | > 100 | > 100 | 71.9 | > 100 | > 100 | > 100 | – |
| Cc1ccc(N2CCC3(CC2)OCCO3)cc1 | > 100 | > 100 | > 100 | > 100 | > 100 | > 100 | > 100 | > 100 | > 100 | > 100 | > 100 | > 100 | – | > 100 | > 100 | > 100 | > 100 | > 100 |
| CC1=C(C)C1[N+](=O)[O-] | > 100 | – | > 100 | > 100 | > 100 | > 100 | > 100 | > 100 | > 100 | > 100 | > 100 | > 100 | > 100 | > 100 | > 100 | > 100 | > 100 | > 100 |
| CC(C)=c1sc(=C(C)C)c2c1=NC(C)(C)N=2 | > 100 | – | > 100 | > 100 | > 100 | > 100 | > 100 | > 100 | > 100 | > 100 | > 100 | > 100 | > 100 | > 100 | > 100 | > 100 | > 100 | > 100 |
| CC1=C(C(=O)N(C(C)C)C(C)C)CC(C(=O)N(C(C)C)C(C)C)=C(C)N1 | > 100 | – | > 100 | > 100 | – | – | > 100 | > 100 | > 100 | > 100 | > 100 | > 100 | > 100 | > 100 | > 100 | > 100 | > 100 | > 100 |
| NC(=O)C1Cc2cc3c(cc21)OCO3 (stereo unspecified) | > 100 | – | > 100 | > 100 | > 100 | – | > 100 | > 100 | > 100 | > 100 | > 100 | > 100 | > 100 | > 100 | > 100 | > 100 | > 100 | > 100 |
| COc1ccc(NC(=O)/C(=N/NC(N)=S)C2C(=O)NC(=S)NC2=O)c(OC)c1 | > 100 | – | > 100 | > 100 | > 100 | > 100 | > 100 | > 100 | > 100 | > 100 | > 100 | > 100 | > 100 | – | > 100 | > 100 | > 100 | > 100 |
| CN1C(=O)C(c2c[nH]c3ccccc23)N(C)C(=O)C1c1c[nH]c2ccccc12 (stereo unspecified) | > 100 | – | > 100 | > 100 | > 100 | > 100 | > 100 | > 100 | > 100 | > 100 | > 100 | > 100 | > 100 | > 100 | > 100 | > 100 | > 100 | > 100 |
